# Patent publication US10611740B2, “Aryl dihydro-2H-benzo[b][1,4]oxazine sulfonamide and related compounds for use as agonists of RORγ and the treatment of disease” (Lycera Corporation, priority 2015, dated 2020)
# pEC50: −log10 of the molar value.
# Target: T1, RORγ-LBD (Homo sapiens, UniProt P51449)
# T1 construct: made in house; host or cells: SF9 cells (baculovirus)
# T1 sequence (P51449 269-508 limits assumed): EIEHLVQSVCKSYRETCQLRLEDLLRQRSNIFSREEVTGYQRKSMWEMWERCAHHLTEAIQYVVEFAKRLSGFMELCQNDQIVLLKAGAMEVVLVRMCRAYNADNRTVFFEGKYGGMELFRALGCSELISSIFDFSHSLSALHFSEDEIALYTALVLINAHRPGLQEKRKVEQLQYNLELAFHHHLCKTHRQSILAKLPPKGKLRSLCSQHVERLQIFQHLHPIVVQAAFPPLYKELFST
# Test: RORγ-Ligand Binding Domain (LBD) TR-FRET Assay;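 for TR-FRET Assay Max Response: 665/615 nm ratio relative to signal without ursolic acid or compound set at 100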
# Format: biochemical
# Experimental: Assay procedures and results are described below.
# HIS-tagged RORγ-LBD protein was expressed in SF9 cells using a baculovirus expression system. The lysate was diluted in assay buffer (50 mM Tris pH 7.0, 50 mM KCl, 1 mM EDTA, 0.1 mM DTT, 0.01% BSA) to obtain RORγ-LBD final concentration of ˜3 nM in a 384-well assay plate (need to titrate for each batch of protein).
# A stock of biotinylated-LXXLL peptide from coactivator SRC1 (Biotin-[…]) was prepared in assay buffer and added to each well (200 nM final concentration). […] RORγ antagonist ursolic acid was also included at a final concentration of 2 μM. Compounds were diluted in DMSO and further diluted in assay buffer with a final DMSO concentration at 1%.
Structure (SMILES),pEC50,TR-FRET Assay Max Response
"Cn1cc(C(=O)NC[C@H]2CN(S(=O)(=O)c3cccc(C(F)(F)F)c3)c3cc(-c4cc(F)cc(OC(F)F)c4)ccc3O2)c(C(F)(F)F)n1 [Compound 30CZ, (S)-N-((6-(3-(difluoromethoxy)-5-fluorophenyl)-4-((3-(trifluoro-methyl)phenyl)sulfonyl)-3,4-dihydro-2H-benzo[b][1,4]-oxazin-2-yl)methyl)-1-methyl-3-(trifluoromethyl)-1H-pyrazole-4-carboxamide]",> 6.30,*** (The symbol “***” indicates a value in the range of greater than 150 to 200)
"O=C(NC[C@H]1CN(S(=O)(=O)c2cccc(C(F)(F)F)c2)c2cc(-c3cc(F)cc(OC(F)F)c3)ccc2O1)c1ccn[nH]1 [Compound 30DB, (S)-N-((6-(3-(difluoromethoxy)-5-fluorophenyl)-4-((3-(trifluoromethyl)phenyl)sulfonyl)-3,4-dihydro-2H-benzo[b][1,4]oxazin-2-yl)methyl)-1H-pyrazole-5-carboxamide]",> 6.30,*** (The symbol “***” indicates a value in the range of greater than 150 to 200)
"CC(C)(C[C@@H]1CN(S(=O)(=O)c2cccc(C(F)(F)F)c2)c2cc(-c3cc(F)ccc3F)ccc2O1)NC(=O)C(C)(C)O [Compound 30DD, (R)-N-(1-(6-(2,5-difluoro-phenyl)-4-((3-(trifluoromethyl)-phenyl)sulfonyl)-3,4-dihydro-2H-benzo[b][1,4]oxazin-2-yl)-2-methylpropan-2-yl)-2-hydroxy-2-methylpropanamide]",> 6.30,*** (The symbol “***” indicates a value in the range of greater than 150 to 200)
"CC(C)(C[C@@H]1CN(S(=O)(=O)c2cccc(C(F)(F)F)c2)c2cc(-c3cc(F)ccc3F)ccc2O1)NS(C)(=O)=O [Compound 30DF, (R)-N-(1-(6-(2,5-difluoro-phenyl)-4-((3-(trifluoromethyl)-phenyl)sulfonyl)-3,4-dihydro-2H-benzo[b][1,4]oxazin-2-yl)-2-methylpropan-2-yl)methane-sulfonamide]",> 6.30,*** (The symbol “***” indicates a value in the range of greater than 150 to 200)
"CC(C)(C[C@H]1CN(S(=O)(=O)c2cccc(C(F)(F)F)c2)c2cc(-c3cccc(OC(F)F)n3)ccc2O1)C(=O)O [Compound 32AM, (S)-3-(6-(6-(difluoromethoxy)-pyridin-2-yl)-4-((3-(trifluoro-methyl)phenyl)sulfonyl)-3,4-dihydro-2H-benzo[b][1,4]oxazin-2-yl)-2,2-dimethylpropanoic acid]",> 6.30,* (The symbol “*” indicates a value in the range of 25 to 90)
"O=C(O)C1(C[C@@H]2CN(S(=O)(=O)c3cccc(C(F)(F)F)c3)c3cc(-c4cc(F)cc(F)c4)ccc3O2)CCC1 [Compound 32AP, (R)-1-((6-(3,5-difluorophenyl)-4-((3-(trifluoromethyl)phenyl)-sulfonyl)-3,4-dihydro-2H-benzo[b][1,4]oxazin-2-yl)methyl)cyclobutane-1-carboxylic acid]",> 6.30,** (The symbol “**” indicates a value in the range of greater than 90 to 150)
"O=C(O)C1(C[C@@H]2CN(S(=O)(=O)c3cccc(C(F)(F)F)c3)c3cc(-c4cc(F)ccc4F)ccc3O2)CCC1 [Compound 32AQ, (R)-1-((6-(2,5-difluorophenyl)-4-((3-(trifluoromethyl)phenyl)-sulfonyl)-3,4-dihydro-2H-benzo[b][1,4]oxazin-2-yl)methyl)cyclobutane-1-carboxylic acid]",5.30 to 6.30,** (The symbol “**” indicates a value in the range of greater than 90 to 150)
"CC(C)(C[C@H]1CN(S(=O)(=O)c2cccc(C(F)(F)F)c2)c2cc(-c3c(F)cccc3C(F)(F)F)ccc2O1)C(=O)O [Compound 32AY, (S)-3-(6-(2-fluoro-6-(trifluoro-methyl)phenyl)-4-((3-(trifluoro-methyl)phenyl)sulfonyl)-3,4-dihydro-2H-benzo[b][1,4]oxazin-2-yl)-2,2-dimethylpropanoic acid]",> 6.30,** (The symbol “**” indicates a value in the range of greater than 90 to 150)
"CC(C)(C[C@H]1CN(S(=O)(=O)c2cccc(C(F)(F)F)c2)c2cc(-c3cc(F)cc(F)c3Cl)ccc2O1)C(=O)O [Compound 32U, (S)-3-(6-(2-chloro-3,5-difluoro-phenyl)-4-((3-(trifluoromethyl)-phenyl)sulfonyl)-3,4-dihydro-2H-benzo[b][1,4]oxazin-2-yl)-2,2-dimethylpropanoic acid]",> 6.30,*** (The symbol “***” indicates a value in the range of greater than 150 to 200)

# More lines, main results first:
pEC50,Structure (SMILES),TR-FRET Assay Max Response
> 6.30,"C[C@H](C[C@H]1CN(S(=O)(=O)c2cccc(C(F)(F)F)c2)c2cc(-c3cc(F)cc(F)c3Cl)cc(F)c2O1)C(=O)O [Compound 46H, (R)-3-((S)-6-(2-chloro-3,5-difluorophenyl)-8-fluoro-4-((3-(trifluoromethyl)phenyl)sulfonyl)-3,4-dihydro-2H-benzo[b][1,4]-oxazin-2-yl)-2-methylpropanoic acid]",*** (The symbol “***” indicates a value in the range of greater than 150 to 200)
> 6.30,"C[C@@H](C[C@H]1CN(S(=O)(=O)c2cccc(C(F)(F)F)c2)c2cc(-c3cc(F)cc(F)c3Cl)cc(F)c2O1)C(=O)O [Compound 46I, (S)-3-((S)-6-(2-chloro-3,5-difluorophenyl)-8-fluoro-4-((3-(trifluoromethyl)phenyl)sulfonyl)-3,4-dihydro-2H-benzo[b][1,4]-oxazin-2-yl)-2-methylpropanoic acid]",*** (The symbol “***” indicates a value in the range of greater than 150 to 200)
> 6.30,"C[C@H](C[C@H]1CN(S(=O)(=O)c2cccc(C(F)(F)F)c2)c2cc(-c3cc(F)cc(F)c3)ccc2O1)C(=O)O [Compound 46J, (R)-3-((S)-6-(3,5-difluorophenyl)-4-((3-(trifluoromethyl)phenyl)-sulfonyl)-3,4-dihydro-2H-benzo[b][1,4]oxazin-2-yl)-2-methylpropanoic acid]",*** (The symbol “***” indicates a value in the range of greater than 150 to 200)
> 6.30,"C[C@H](C[C@H]1CN(S(=O)(=O)c2cccc(C(F)(F)F)c2)c2cc(-c3cccc(C(F)(F)F)c3)ccc2O1)C(=O)O [Compound 46K, (R)-2-methyl-3-((S)-6-(3-(trifluoromethyl)phenyl)-4-((3-(trifluoromethyl)phenyl)sulfonyl)-3,4-dihydro-2H-benzo[b][1,4]-oxazin-2-yl)propanoic acid]",*** (The symbol “***” indicates a value in the range of greater than 150 to 200)
> 6.30,"C[C@@H](C[C@H]1CN(S(=O)(=O)c2cccc(C(F)(F)F)c2)c2cc(-c3cccc(C(F)(F)F)c3)ccc2O1)C(=O)O [Compound 46L, (S)-2-methyl-3-((S)-6-(3-(trifluoromethyl)phenyl)-4-((3-(trifluoromethyl)phenyl)sulfonyl)-3,4-dihydro-2H-benzo[b][1,4]-oxazin-2-yl)propanoic acid]",–
